How the values were obtained:
[1] = test system: Rattus norvegicus; assay: Distribution of copper per 100 ml of Wistar rat blood at 5 mg/kg, iv after 1 hr; format: ADME, organism-based; set-up: dose 5 mg/kg, route intravenous; details: in vivo
[2] = test system: Rattus norvegicus; assay: Decrease in copper concentration in Wistar rat CSF at 5 mg/kg, iv after 1 hr relative to control; format: functional; set-up: scale not given: the % may be the effect or the level left

Ct [1] | SMILES | Activity [2]
135 µg | CC(C)(S)[C@@H](N)C(=O)O [PENICILLAMINE] | –
142 µg | c1cc(CN2CCCNCCNCCCNCC2)ccc1CN1CCCNCCNCCCNCC1 [PLERIXAFOR] | 70%
126 µg | Oc1c(I)cc(Cl)c2cccnc12 [CLIOQUINOL] | 70%
